ChEMBL document CHEMBL1649074, “Aurora kinase inhibitors based on the imidazo[1,2-a]pyrazine core: fluorine and deuterium incorporation improve oral absorption and exposure” (J Med Chem, 2011)

Columns and labels:
[1] = target: T1, Testis-specific serine/threonine-protein kinase 2 (Homo sapiens, UniProt Q96PF2); experiment: Inhibition of TSSK2
T1 sequence (Q96PF2 whole entry): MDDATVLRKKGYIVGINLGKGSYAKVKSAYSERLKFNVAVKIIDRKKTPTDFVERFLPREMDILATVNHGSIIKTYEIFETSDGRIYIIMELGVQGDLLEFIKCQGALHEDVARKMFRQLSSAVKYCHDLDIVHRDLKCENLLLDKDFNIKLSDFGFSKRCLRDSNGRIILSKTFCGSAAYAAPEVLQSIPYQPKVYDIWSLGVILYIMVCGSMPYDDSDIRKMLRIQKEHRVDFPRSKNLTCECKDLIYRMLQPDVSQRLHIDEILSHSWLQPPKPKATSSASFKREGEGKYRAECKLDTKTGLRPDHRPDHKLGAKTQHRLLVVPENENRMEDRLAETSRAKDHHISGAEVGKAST

[2] = target: T2, Calcium/calmodulin-dependent protein kinase type IV (Homo sapiens, UniProt Q16566); experiment: Inhibition of CAMK4
T2 sequence (Q16566 whole entry): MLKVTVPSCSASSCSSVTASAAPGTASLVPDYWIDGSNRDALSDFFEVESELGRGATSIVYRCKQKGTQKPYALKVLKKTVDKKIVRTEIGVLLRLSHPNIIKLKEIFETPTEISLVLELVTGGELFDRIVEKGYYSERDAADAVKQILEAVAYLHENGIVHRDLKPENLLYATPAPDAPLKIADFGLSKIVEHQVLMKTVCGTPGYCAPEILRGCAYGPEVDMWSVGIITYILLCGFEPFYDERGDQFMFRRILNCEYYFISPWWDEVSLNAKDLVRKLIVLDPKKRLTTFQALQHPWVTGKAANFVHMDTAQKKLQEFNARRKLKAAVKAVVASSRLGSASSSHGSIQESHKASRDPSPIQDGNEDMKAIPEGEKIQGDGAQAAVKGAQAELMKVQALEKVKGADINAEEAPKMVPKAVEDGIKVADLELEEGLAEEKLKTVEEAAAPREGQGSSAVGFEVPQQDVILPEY

[3] = target: Insulin-like growth factor 1 receptor (Homo sapiens, UniProt P08069); experiment: Inhibition of IGF1R
[4] = target: Rho-associated protein kinase 2 (Homo sapiens, UniProt O75116); experiment: Inhibition of ROCK2
[5] = target: T3, Serine/threonine-protein kinase Nek2 (Homo sapiens, UniProt P51955); experiment: Inhibition of NEK2
T3 sequence (P51955 whole entry): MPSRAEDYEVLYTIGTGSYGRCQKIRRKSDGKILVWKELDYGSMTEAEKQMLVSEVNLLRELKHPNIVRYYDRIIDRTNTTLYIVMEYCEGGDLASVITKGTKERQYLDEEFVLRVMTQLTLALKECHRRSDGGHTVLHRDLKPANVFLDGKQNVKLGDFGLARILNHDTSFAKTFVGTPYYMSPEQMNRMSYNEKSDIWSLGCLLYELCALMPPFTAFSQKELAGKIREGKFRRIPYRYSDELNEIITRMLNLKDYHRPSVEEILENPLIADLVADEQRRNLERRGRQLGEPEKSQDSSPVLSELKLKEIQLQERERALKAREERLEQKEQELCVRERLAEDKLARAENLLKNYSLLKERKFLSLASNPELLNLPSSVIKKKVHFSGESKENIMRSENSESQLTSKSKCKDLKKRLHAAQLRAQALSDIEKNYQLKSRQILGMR

[6] = target: T4, Receptor-type tyrosine-protein kinase FLT3 (Homo sapiens, UniProt P36888); experiment: Inhibition of FLT3
T4 sequence (P36888 whole entry): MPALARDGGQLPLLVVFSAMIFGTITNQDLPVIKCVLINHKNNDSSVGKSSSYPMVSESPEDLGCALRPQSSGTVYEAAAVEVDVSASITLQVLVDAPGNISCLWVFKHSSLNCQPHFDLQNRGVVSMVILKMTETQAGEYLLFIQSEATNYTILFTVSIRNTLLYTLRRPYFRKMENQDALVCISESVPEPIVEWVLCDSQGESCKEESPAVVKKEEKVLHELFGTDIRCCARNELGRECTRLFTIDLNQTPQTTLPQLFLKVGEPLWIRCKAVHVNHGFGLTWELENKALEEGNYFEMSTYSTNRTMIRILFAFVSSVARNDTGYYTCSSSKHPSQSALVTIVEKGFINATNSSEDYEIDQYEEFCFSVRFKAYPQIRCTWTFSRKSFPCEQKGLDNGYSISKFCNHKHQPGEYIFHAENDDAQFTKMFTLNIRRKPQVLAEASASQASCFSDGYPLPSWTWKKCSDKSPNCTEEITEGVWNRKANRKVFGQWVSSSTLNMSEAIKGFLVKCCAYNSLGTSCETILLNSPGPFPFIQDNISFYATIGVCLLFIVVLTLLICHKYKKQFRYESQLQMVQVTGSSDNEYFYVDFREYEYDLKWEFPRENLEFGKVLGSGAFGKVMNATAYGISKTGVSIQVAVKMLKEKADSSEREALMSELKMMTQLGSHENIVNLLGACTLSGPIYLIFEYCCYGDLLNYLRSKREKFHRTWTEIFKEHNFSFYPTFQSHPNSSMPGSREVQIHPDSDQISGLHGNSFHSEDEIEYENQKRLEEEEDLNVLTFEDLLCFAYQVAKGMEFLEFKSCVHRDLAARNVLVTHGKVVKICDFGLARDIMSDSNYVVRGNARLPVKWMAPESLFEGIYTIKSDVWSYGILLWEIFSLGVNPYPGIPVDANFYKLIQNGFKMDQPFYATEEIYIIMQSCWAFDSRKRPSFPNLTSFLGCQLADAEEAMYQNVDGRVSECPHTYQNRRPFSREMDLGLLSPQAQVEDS

Aurora kinase B = Aurora kinase B (Homo sapiens, UniProt Q96GD4); experiment: Inhibition of Aurora B
[7] = Oral bioavailability in cynomolgus monkey at 30 mg/kg; type: ADME, organism-based, Macaca fascicularis; conditions: in vivo
[8] = target: Serine/threonine-protein kinase Chk1 (Homo sapiens, UniProt O14757); experiment: Inhibition of CHK1
[9] = AUC (0 to 24 hrs) in cynomolgus monkey at 30 mg/kg, po; type: ADME, organism-based, Macaca fascicularis; parameters: time < 24 hr, dose 30 mg/kg, route oral; conditions: plasma
[10] = AUC (0 to 24 hrs) in CD1 mouse at 50 mg/kg, po; type: ADME, organism-based; parameters: time < 24 hr, dose 50 mg/kg, route oral; conditions: plasma
[11] = Clearance in CD1 mouse at 3 mg/kg, iv; type: ADME, organism-based; parameters: dose 3 mg/kg, route intravenous; conditions: in vivo
[12] = AUC (0 to 24 hrs) in Sprague-Dawley rat at 10 mg/kg, iv; type: ADME, organism-based; parameters: time < 24 hr, dose 10 mg/kg, route intravenous; conditions: plasma
[13] = target: Interleukin-1 receptor-associated kinase 4 (Homo sapiens, UniProt Q9NWZ3); experiment: Inhibition of IRAK4
[14] = Plasma clearance in rat; type: ADME, organism-based
[15] = Oral bioavailability in Sprague-Dawley rat at 30 mg/kg; type: ADME, organism-based; conditions: in vivo
[16] = AUC (0 to 24 hrs) in Sprague-Dawley rat at 30 mg/kg, po; type: ADME, organism-based; parameters: time < 24 hr, dose 30 mg/kg, route oral; conditions: plasma
[17] = AUC (0 to 24 hrs) in CD1 mouse at 3 mg/kg, iv; type: ADME, organism-based; parameters: time < 24 hr, dose 3 mg/kg, route intravenous; conditions: plasma
[18] = AUC (0 to 6 hrs) in rat at 10 mg/kg, po; type: ADME, organism-based; parameters: time < 6 hr, dose 10 mg/kg, route oral; conditions: plasma
[19] = Oral bioavailability in CD1 mouse at 50 mg/kg; type: ADME, organism-based; conditions: in vivo

Insulin-like growth factor 1 receptor, sequence (P08069 31-736 limits assumed): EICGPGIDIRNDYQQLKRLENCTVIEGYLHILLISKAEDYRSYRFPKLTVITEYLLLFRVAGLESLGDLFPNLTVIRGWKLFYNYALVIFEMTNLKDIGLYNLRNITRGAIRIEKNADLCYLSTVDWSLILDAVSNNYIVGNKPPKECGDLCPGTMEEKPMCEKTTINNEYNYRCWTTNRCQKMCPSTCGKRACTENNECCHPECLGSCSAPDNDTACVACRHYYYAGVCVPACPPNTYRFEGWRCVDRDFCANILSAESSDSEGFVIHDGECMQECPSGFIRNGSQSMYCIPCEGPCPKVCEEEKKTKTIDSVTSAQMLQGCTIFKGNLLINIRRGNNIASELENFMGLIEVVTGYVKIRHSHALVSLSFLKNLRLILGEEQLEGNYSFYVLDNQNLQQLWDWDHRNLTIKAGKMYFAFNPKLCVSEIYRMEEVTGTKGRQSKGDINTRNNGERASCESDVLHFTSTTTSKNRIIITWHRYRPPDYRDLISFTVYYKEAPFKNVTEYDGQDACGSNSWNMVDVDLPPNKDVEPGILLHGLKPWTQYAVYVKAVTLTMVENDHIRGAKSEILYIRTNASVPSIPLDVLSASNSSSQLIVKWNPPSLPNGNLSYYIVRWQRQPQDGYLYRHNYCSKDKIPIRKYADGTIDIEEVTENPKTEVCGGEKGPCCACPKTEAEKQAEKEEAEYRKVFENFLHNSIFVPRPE
Insulin-like growth factor 1 receptor, sequence (P08069 741-1367 limits assumed): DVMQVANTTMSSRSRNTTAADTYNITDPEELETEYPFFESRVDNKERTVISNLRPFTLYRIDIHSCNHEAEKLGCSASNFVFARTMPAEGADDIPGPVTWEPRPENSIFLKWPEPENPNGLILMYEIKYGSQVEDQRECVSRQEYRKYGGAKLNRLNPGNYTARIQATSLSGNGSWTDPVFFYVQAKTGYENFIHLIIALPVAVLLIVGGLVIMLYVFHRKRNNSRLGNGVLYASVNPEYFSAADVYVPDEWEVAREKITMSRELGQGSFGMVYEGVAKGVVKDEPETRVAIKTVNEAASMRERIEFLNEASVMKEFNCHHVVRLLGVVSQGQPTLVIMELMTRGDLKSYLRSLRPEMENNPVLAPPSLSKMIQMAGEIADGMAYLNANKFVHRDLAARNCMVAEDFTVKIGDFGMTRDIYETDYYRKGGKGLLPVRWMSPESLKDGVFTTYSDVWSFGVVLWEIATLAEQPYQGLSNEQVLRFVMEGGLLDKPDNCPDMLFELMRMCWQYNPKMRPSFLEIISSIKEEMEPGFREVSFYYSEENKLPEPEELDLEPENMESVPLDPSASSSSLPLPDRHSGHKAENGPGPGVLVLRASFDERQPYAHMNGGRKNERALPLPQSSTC
Aurora kinase B, sequence (Q96GD4 whole entry): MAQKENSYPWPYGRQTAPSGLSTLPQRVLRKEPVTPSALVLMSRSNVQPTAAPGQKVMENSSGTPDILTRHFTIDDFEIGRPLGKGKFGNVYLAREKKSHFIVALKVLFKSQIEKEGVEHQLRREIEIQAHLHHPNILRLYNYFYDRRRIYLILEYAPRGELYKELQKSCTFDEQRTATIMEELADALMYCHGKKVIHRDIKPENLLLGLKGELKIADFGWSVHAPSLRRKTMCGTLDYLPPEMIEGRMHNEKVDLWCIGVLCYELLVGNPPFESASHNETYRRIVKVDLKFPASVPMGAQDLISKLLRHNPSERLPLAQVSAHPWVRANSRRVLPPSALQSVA
Rho-associated protein kinase 2, sequence (O75116 whole entry): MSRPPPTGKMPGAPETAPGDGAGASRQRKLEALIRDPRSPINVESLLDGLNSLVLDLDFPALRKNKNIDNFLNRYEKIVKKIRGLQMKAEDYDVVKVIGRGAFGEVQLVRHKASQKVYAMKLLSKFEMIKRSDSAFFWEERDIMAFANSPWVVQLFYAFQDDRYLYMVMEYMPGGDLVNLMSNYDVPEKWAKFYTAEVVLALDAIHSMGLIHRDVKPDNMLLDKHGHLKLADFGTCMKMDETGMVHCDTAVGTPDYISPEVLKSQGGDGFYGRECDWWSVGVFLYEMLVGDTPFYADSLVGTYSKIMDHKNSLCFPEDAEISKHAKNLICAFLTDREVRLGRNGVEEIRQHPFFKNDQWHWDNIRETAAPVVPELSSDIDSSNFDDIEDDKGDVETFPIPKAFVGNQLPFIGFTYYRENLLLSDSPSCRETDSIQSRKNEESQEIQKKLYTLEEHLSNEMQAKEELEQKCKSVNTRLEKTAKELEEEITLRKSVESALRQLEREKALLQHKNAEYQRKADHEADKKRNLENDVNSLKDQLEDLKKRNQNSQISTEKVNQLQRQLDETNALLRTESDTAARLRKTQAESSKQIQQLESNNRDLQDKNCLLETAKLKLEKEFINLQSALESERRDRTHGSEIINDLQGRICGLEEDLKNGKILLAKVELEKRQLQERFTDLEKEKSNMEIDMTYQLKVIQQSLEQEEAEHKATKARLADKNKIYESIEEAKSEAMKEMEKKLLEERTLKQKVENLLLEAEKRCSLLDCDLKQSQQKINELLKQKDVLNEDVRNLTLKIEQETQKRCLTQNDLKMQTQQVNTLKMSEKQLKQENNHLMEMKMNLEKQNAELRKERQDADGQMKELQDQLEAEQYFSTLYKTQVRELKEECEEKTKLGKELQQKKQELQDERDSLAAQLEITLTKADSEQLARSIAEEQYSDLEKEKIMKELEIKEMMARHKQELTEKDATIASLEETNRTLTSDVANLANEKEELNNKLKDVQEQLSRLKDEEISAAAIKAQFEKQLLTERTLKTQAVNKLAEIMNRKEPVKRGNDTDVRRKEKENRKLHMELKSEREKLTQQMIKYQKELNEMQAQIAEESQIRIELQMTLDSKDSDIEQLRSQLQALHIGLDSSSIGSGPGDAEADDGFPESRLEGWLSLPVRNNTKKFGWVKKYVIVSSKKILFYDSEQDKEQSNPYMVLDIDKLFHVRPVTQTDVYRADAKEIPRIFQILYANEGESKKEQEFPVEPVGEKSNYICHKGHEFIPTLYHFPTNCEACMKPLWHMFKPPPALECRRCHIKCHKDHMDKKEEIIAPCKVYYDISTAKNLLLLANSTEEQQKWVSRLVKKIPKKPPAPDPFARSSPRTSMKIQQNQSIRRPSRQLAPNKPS
Serine/threonine-protein kinase Chk1, sequence (O14757 whole entry): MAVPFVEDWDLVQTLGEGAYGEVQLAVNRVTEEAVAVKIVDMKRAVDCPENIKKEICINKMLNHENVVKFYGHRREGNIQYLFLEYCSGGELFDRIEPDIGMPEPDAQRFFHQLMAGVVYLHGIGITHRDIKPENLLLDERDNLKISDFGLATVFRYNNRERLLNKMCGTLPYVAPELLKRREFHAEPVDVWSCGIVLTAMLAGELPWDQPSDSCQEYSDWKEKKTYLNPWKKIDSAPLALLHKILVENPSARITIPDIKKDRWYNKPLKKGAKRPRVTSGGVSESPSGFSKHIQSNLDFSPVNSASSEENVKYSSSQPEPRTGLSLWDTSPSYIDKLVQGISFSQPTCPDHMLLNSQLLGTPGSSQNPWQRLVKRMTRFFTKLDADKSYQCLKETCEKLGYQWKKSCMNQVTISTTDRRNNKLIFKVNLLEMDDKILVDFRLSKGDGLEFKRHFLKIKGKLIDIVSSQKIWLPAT
Interleukin-1 receptor-associated kinase 4, sequence (Q9NWZ3 whole entry): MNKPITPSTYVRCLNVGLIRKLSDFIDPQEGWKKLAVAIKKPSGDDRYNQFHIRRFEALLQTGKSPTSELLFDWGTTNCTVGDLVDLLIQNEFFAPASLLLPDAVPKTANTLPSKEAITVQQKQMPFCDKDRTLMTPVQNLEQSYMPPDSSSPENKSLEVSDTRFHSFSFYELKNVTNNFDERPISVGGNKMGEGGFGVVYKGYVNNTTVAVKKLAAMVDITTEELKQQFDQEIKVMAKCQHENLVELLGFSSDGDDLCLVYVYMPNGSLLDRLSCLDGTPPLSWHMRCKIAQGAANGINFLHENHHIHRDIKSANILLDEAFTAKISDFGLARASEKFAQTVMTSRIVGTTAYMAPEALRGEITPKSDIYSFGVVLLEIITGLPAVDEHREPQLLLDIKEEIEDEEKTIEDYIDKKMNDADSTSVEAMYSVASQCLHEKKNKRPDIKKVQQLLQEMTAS

SMILES	IC50 [1]	IC50 [2]	IC50 [3]	IC50 [4]	IC50 [5]	IC50 [6]	IC50 (Aurora kinase B)	bioavailability [7]	IC50 [8]	AUC(0-t) at 24 h [9]	AUC(0-t) at 24 h [10]	clearance [11]	AUC(0-t) at 24 h [12]	IC50 [13]	clearance [14]	bioavailability [15]	AUC(0-t) at 24 h [16]	AUC(0-t) at 24 h [17]	AUC(0-t) at 6 h [18]	bioavailability [19]
CCN(Cc1cc(Nc2nc(C)cn3c(-c4cn[nH]c4)cnc23)sn1)C(C)(C)CO	> 100 nM	> 100 nM	> 100 nM	> 100 nM	> 100 nM	5 nM	≤ 13 nM	–	–	–	–	–	–	–	–	–	–	–	–	–
Cc1cn2c(-c3cn[nH]c3)cnc2c(Nc2cc(CN3CCC(F)(F)C3)ns2)n1.Cl	> 100 nM	> 100 nM	> 100 nM	> 100 nM	> 100 nM	76 nM	≤ 13 nM	2%	640 nM	1.7 µM·h	9.4 µM·h	127 mL/min/kg	12.2 µM·h	1000 nM	33 mL/min/kg	19%	6.9 µM·h	0.9 µM·h	1.61 µM·h	60%
Cl.[2H]C([2H])(c1cc(Nc2nc(C)cn3c(-c4cn[nH]c4)cnc23)sn1)N1CCC(F)(F)C1	> 100 nM	> 100 nM	> 100 nM	> 100 nM	> 100 nM	46 nM	≤ 13 nM	2%	200 nM	5.1 µM·h	35.9 µM·h	20.3 mL/min/kg	63.3 µM·h	640 nM	6.3 mL/min/kg	33%	62.1 µM·h	5.9 µM·h	4.73 µM·h	37%
